In this experiment the target is T1, human TRPV1 (Homo sapiens, UniProt Q8NER1).
T1 construct: expressed in transfected cells; host or cells: CHO-K1
T1 sequence (Q8NER1 whole entry): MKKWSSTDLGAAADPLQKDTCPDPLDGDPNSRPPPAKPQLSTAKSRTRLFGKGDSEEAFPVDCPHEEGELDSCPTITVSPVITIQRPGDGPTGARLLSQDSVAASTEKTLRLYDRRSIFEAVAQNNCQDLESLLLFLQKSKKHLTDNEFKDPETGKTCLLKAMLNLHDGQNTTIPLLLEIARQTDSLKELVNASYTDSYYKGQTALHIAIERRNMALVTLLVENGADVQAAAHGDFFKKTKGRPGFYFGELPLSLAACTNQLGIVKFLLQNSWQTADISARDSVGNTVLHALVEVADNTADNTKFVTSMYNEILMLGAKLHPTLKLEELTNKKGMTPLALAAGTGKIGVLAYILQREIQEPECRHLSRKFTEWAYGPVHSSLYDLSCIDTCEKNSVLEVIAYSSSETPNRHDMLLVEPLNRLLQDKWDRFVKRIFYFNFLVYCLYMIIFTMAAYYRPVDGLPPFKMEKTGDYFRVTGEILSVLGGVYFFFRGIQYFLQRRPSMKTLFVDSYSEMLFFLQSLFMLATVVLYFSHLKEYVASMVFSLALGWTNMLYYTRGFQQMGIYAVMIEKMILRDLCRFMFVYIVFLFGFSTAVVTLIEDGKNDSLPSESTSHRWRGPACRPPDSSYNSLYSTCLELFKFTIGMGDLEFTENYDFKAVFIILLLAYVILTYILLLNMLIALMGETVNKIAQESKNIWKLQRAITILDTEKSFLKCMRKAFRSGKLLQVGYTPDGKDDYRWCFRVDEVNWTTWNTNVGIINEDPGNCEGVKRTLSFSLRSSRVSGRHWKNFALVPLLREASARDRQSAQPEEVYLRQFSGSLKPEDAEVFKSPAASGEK
In words: Measurement of capsaicin-induced Ca influx in human TRPV1 transformed CHO cell line using FDSS-6000. It is filed as cell-based. The note with it: concentration at which the capsaicin concentration-reaction curve is shifted two times to the right, human TRPV1 transformed CHO cells.
Turning to `O=C(/C=C1\CCCOc2cc(C(F)(F)F)c(F)cc21)Nc1cccc2c1CC(O)CC2` (stereo not drawn) [Example 248, (E)-2-(7-fluoro-8-trifluoromethyl-3,4-dihydrobenzo[b]oxepin-5-(2H)-ylidene)-N-(7-hydroxy-5,6,7,8-tetrahydronaphthalen-1-yl)acetamide], the “A2 VALUE” is given as “A (compounds of the present invention having an A2 value of less than 100 nM are represented by A)”. As for `CC(C)CC(=O)N1CC/C(=C\C(=O)Nc2ccc3cccnc3c2)c2ccc(C(F)(F)F)cc21` [Example 77, (E)-2-(1-(3-methylbutanoyl)-7-trifluoromethyl-2,3-dihydroquinolin-4(1H)-ylidene)-N-(quinolin-7-yl)acetamide], the “A2 VALUE” is on record as “A (compounds of the present invention having an A2 value of less than 100 nM are represented by A)”. Take `O=C(/C=C1\CCN(C(=O)C2CCC2)c2cc(C(F)(F)F)ccc21)Nc1cccc2c1CC(O)CC2` (stereo not drawn) [Example 84, (E)-2-(1-cyclobutanecarbonyl-7-trifluoromethyl-2,3-dihydroquinolin-4(1H)-ylidene)-N-(7-hydroxy-5,6,7,8-tetrahydronaphthalen-1-yl)acetamide]: the “A2 VALUE” is reported as “A (compounds of the present invention having an A2 value of less than 100 nM are represented by A)”.

On to `CS(=O)(=O)O.O=C(/C=C1\CCCOc2cc(C(F)(F)F)ccc21)Nc1ccc2cccnc2c1` [Example 127, (E)-2-(8-trifluoromethyl-3,4-dihydrobenzo[b]oxepin-5(2H)-ylidene)-N-(quinolin-7-yl)acetamide methanesulfonate], for which the “A2 VALUE” was “A (compounds of the present invention having an A2 value of less than 100 nM are represented by A)”. `O=C(/C=C1\CCN(C(=O)C2CC2)c2cc(C(F)(F)F)ccc21)Nc1cccc2c1CC(O)CC2` (stereo not drawn) [Example 105, (E)-2-(7-trifluoromethyl-2,3-dihydro-1-cyclopropanecarbonylquinolin-4(1H)-ylidene)-N-(7-hydroxy-5,6,7,8-tetrahydronaphthalen-1-yl)acetamide]: the “A2 VALUE” is on record as “A (compounds of the present invention having an A2 value of less than 100 nM are represented by A)”.

As for `O=C(/C=C1\CCOc2ccccc21)Nc1cccc2cnccc12` [Example 2, (E)-2-(chroman-4-ylidene)-N-(isoquinolin-5-yl)acetamide], the “A2 VALUE” was “B (compounds having an A2 value of 100 nM or more are represented by B)”. Regarding `O=C(/C=C1\CCCOc2cc(C(F)(F)F)ccc21)NCc1ccc(-n2cccn2)cc1` [Example 38, (E)-N-(4-(1H-pyrazolo-1-yl)phenylmethyl)-2-(8-trifluoromethyl-3,4-dihydrobenzo[b]oxepin-5(2H)-ylidene)acetamide], the “A2 VALUE” was “B (compounds having an A2 value of 100 nM or more are represented by B)”.

As for `Cc1cc(=O)oc2cc(NC(=O)/C=C3\CCCOc4cc(C(F)(F)F)ccc43)ccc12` [Example 21, (E)-2-(8-trifluoromethyl-3,4-dihydrobenzo[b]oxepin-5(2H)-ylidene)-N-(4-methyl-2-oxo-2H-chromen-7-yl)acetamide], the “A2 VALUE” is on record as “B (compounds having an A2 value of 100 nM or more are represented by B)”. Consider `O=C(/C=C1\CCN(C(=O)C2CC(F)(F)C2)c2cc(C(F)(F)F)ccc21)Nc1cccc2c1CC(O)CC2` (stereo not drawn) [Example 118, (E)-2-(1-(3,3-difluorocyclobutanecarbonyl)-7-trifluoromethyl-2,3-dihydroquinolin-4(1H)-ylidene)-N-(7-hydroxy-5,6,7,8-tetrahydronaphthalen-1-yl)acetamide], for which the “A2 VALUE” is on record as “A (compounds of the present invention having an A2 value of less than 100 nM are represented by A)”.

As for `CC1(C)C/C(=C\C(=O)Nc2cccc3c2CC(O)CC3)c2ccc(C(F)(F)F)cc2O1` (stereo not drawn) [Example 241, (E)-2-(7-trifluoromethyl-2,2-dimethylchroman-4-ylidene)-N-(7-hydroxy-5,6,7,8-tetrahydronaphthalen-1-yl)acetamide], the “A2 VALUE” is recorded as “A (compounds of the present invention having an A2 value of less than 100 nM are represented by A)”. As for `CCCC(C)(C)C(=O)N1CC/C(=C\C(=O)Nc2ccc3cccnc3c2)c2ccc(C(F)(F)F)cc21` [Example 81, (E)-2-(1-(2,2-dimethylpentanoyl)-7-trifluoromethyl-2,3-dihydroquinolin-4(1H)-ylidene)-N-(quinolin-7-yl)acetamide], the “A2 VALUE” is “A (compounds of the present invention having an A2 value of less than 100 nM are represented by A)”. With `CCCCC(=O)N1CC/C(=C\C(=O)Nc2cccc3c2CC(O)CC3)c2ccc(C(F)(F)F)cc21` (stereo not drawn) [Example 83, (E)-2-(1-pentanoyl-7-trifluoromethyl-2,3-dihydroquinolin-4(1H)-ylidene)-N-(7-hydroxy-5,6,7,8-tetrahydronaphthalen-1-yl)acetamide], the “A2 VALUE” is recorded as “A (compounds of the present invention having an A2 value of less than 100 nM are represented by A)”. For the molecule `O=C(/C=C1\CCCOc2cc(C(F)(F)F)ccc21)Nc1cccnc1N1CCOCC1` [Example 20, (E)-2-(8-trifluoromethyl-3,4-dihydrobenzo[b]oxepin-5(2H)-ylidene)-N-(2-morpholinopyridin-3-yl)acetamide], the “A2 VALUE” is on record as “B (compounds having an A2 value of 100 nM or more are represented by B)”.

Take `O=C1CCc2cccc(NC(=O)/C=C3\CCOc4cc(C(F)(F)F)ccc43)c2C1` [Example 119, (E)-N-(7-oxo-5,6,7,8-tetrahydronaphthalen-1-yl)-2-(7-trifluoromethyl-chroman-4-ylidene)acetamide]: the “A2 VALUE” was “A (compounds of the present invention having an A2 value of less than 100 nM are represented by A)”. As for `CC1(C(=O)N2CC/C(=C\C(=O)Nc3cccc4c3CC(O)CC4)c3ccc(C(F)(F)F)cc32)CCC1` (stereo not drawn) [Example 90, (E)-2-(1-(1-methylcyclobutanecarbonyl)-7-trifluoromethyl-2,3-dihydroquinolin-4(1H)-ylidene)-N-(7-hydroxy-5,6,7,8-tetrahydronaphthalen-1-yl)acetamide], the “A2 VALUE” is recorded as “A (compounds of the present invention having an A2 value of less than 100 nM are represented by A)”. As to `Cn1ccc2ccc(NC(=O)/C=C3\CCCOc4cc(C(F)(F)F)ccc43)cc21` [Example 152, (E)-2-(8-trifluoromethyl-3,4-dihydrobenzo[b]oxepin-5(2H)-ylidene)-N-(1-methylindol-6-yl)acetamide], the “A2 VALUE” is recorded as “A (compounds of the present invention having an A2 value of less than 100 nM are represented by A)”. Turning to `O=C(/C=C1\CCOc2cc(OC(F)(F)C(F)F)ccc21)Nc1cccc2c1CC(O)CC2` (stereo not drawn) [Example 212, (E)-2-(7-(1,1,2,2-tetrafluoroethoxy)-chroman-4-ylidene)-N-(7-hydroxy-5,6,7,8-tetrahydronaphthalen-1-yl)acetamide], the “A2 VALUE” is listed as “A (compounds of the present invention having an A2 value of less than 100 nM are represented by A)”. With `O=C(/C=C1\CCOc2cc(C(F)(F)F)ccc21)Nc1cccc2c1CC(O)C(=O)N2` (stereo not drawn) [Example 121, (E)-N-(3-hydroxy-2-oxo-1,2,3,4-tetrahydroquinolin-5-yl)-2-(7-trifluoromethyl-chroman-4-ylidene)acetamide], the “A2 VALUE” is given as “A (compounds of the present invention having an A2 value of less than 100 nM are represented by A)”.

(Values after patent US7910751B2, “Heterocyclidene acetamide derivative” (Mochida Pharmaceutical Co., Ltd., priority 2005, dated 2011).)
